Experimental data taken from patent US11135209B2, “Compositions and methods for inhibiting protein kinases” (UNIVERSITY OF HOUSTON SYSTEM, priority 2017, dated 2021).

Columns and labels:
[1] = target: Recombinant RIPK2 protein (Homo sapiens, UniProt O43353); test: Receptor Interacting Protein Kinase 2 (RIPK2) enzyme assay (ADP-Glo); format: biochemical
Protocol: Receptor Interacting Protein Kinase 2 (RIPK2) Enzyme Assay
Recombinant RIPK2 protein (20 ng per reaction) is diluted in the reaction buffer consisting of 40 mM Tris (pH 7.5); 20 mM MgCl2; 0.1 mg/ml BSA; 50 μM DTT. Diluted protein is added to low volume white 384 well plates (2 μL/well). Inhibitors are diluted in reaction buffer (final 25% DMSO), 1 μL is added to each well and incubated 5 min at room temperature. Reactions are initiated by the addition of 2 μL of 100 μM ATP and 1 mg/ml RS repeat peptide (SignalChem) in the reaction buffer. Plates are sealed with plastic coverslips and incubated at room temperature for 2 h. Reactions are stopped by the addition of 5 μL of ADP-Glo reagent (Promega) and ADP generation reaction is performed for 40 min at room temperature. Luminescence signal is generated by the addition of 10 μL of Kinase detection reagent (Promega) for 30 min at room temperature Luminescence signals are determined using appropriate luminescence plate-reader (typical integration time 0.3-1 sec). To calculate percent inhibition, average background signal is subtracted from test well and maximal signal wells. Inhibition, %=(1−(test signal/maximal signal))*100. The percent inhibition at a specified concentration is determined or IC50 values are calculated based on a dose range of inhibitor concentrations using non-linear regression in GraphPad Prism software.

human ALK2 = target: T1, human ALK2 (Homo sapiens, UniProt Q04771); test: Activin-Like Kinase 2 (ALK2) enzyme assay; format: biochemical
T1 sequence (Q04771 21-509): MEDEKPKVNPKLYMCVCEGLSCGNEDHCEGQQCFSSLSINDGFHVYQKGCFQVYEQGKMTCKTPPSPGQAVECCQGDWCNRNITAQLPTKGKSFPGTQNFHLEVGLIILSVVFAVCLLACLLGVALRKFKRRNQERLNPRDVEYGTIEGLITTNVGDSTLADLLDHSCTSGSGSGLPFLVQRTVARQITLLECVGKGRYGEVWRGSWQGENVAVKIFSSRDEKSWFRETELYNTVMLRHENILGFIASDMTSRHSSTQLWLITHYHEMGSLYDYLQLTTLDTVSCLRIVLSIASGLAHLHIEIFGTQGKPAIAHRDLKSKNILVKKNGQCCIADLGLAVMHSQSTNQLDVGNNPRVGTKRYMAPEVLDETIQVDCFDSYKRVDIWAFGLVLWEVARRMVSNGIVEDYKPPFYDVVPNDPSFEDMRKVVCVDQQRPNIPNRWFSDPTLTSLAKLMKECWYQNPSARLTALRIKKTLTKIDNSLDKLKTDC
Protocol: Activin-Like Kinase 2 (ALK2) Enzyme Assay
Enzyme inhibitory activity was evaluated in a standard kinase enzyme assay by incubating human ALK2 with the protein substrate casein (1 mg/mL) and γ-^33ATP (10 μM) in the presence of various concentrations of test compounds (10 nM-100 μM). After 30 min the amount of ^33P-casein was determined.

[2] = tested on: NOD2 cellular signaling in HEK-Blue cells expressing human NOD2; test: NOD2 cell signaling assay (HEK-Blue, NFkB-SEAP reporter, L18-MDP stimulated); format: cell-based; conditions: read-out: IC50 (nM) HEKBlue RIPK2
Protocol: NOD2 Cell Signaling Assay.
HEK-Blue cells expressing human NOD2 and NFkB-SAEP reporter (Invivogen) are seeded into 96 well clear plates at 7.5×10^3 cells per well in 100 μL of DMEM media supplemented with 10% FBS and 1% antibiotic-antimycotic mix. Cells are allowed to attach for 48 h in 5% CO2 tissue culture incubator at 37° C. On the morning of the experiment, media in the wells is replaced with 100 pt of HEK-Blue detection media (Invivogen). Cells are treated with the inhibitors, diluted in DMSO (0.5 μL per well) for 15 min in 5% CO2 tissue culture incubator at 37° C. After that, cells are stimulated by the addition of 1 ng/well L18-MDP (Invivogen). Cells are incubated in 5% CO2 tissue culture incubator at 37° C. for 8 h and absorbance, corresponding to the SEAP in the media, is determined in Wallac3V plate reader (Perkin Elmer). Inhibition, %=(1−((sample signal-unstimulated and DMSO treated cells)/(L18-MDP stimulated and DMSO treated cells−unstimulated and DMSO treated cells)))*100. IC50 values are calculated based on a dose range of inhibitor concentrations using non-linear regression in GraphPad Prism software.

Recombinant RIPK2 protein, sequence (O43353 whole entry, species assumed): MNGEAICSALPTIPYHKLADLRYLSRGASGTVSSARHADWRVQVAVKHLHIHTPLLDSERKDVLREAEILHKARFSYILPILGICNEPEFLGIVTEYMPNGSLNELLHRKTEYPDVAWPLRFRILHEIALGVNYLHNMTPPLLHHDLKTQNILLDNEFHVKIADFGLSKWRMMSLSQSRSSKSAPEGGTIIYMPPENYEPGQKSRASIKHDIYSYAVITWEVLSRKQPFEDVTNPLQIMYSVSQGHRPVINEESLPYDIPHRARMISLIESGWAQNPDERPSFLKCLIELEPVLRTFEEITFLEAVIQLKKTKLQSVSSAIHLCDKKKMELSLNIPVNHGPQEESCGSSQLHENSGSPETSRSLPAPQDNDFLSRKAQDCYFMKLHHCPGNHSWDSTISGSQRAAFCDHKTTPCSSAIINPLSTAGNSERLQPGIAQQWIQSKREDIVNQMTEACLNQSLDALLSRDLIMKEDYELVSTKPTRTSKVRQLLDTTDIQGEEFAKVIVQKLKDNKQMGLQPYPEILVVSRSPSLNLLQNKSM

Row | Structure (SMILES) | IC50 [1] | IC50 (human ALK2) | IC50 [2]
1 | COc1cc(-c2cc(-c3ccc(N4CCNCC4)cc3)cnc2N)cc(NS(=O)(=O)Cc2ccccc2)c1C [CSLP31, N-(5-(2-Amino-5-(4-(piperazin-1-yl)phenyl)pyridin-3-yl)-3-methoxy-2-methylphenyl)-1-phenylmethanesulfonamide] | > 1000 nM | > 10 nM | > 100 nM
2 | CCCS(=O)(=O)Nc1cc(-c2cc(-c3ccccc3S(C)(=O)=O)cnc2N)ccc1OC [CSLP33, N-(5-(2-Amino-5-(2-(methylsulfonyl)phenyl)pyridin-3-yl)-2-methoxyphenyl)propane-1-sulfonamide] | > 1000 nM | > 100000 nM | > 1000 nM
3 | CCCS(=O)(=O)Nc1cc(-c2cc(-c3ccc(S(C)(=O)=O)cc3)cnc2N)ccc1OC [CSLP34] | > 100 nM | > 10000 nM | > 1000 nM
4 | CCCS(=O)(=O)Nc1cc(-c2cc(-c3ccc(N4CCNCC4)cc3)cnc2N)cc(Cl)c1OC [CSLP35] | > 10 nM | > 100 nM | > 10 nM
5 | CCCS(=O)(=O)NCc1cc(-c2cc(-c3ccc(N4CCNCC4)cc3)cnc2N)ccc1OC [CSLP36, N-(5-(2-Amino-5-(4-(piperazin-1-yl)phenyl)pyridin-3-yl)-2-methoxybenzyl)propane-1-sulfonamide] | > 100 nM | > 100 nM | > 1000 nM
6 | CCCS(=O)(=O)Nc1cc(-c2cc(-c3ccc(N4CCNCC4)cc3)cnc2N)cc(F)c1OC [CSLP37, N-(5-(2-Amino-5-(4-(piperazin-1-yl)phenyl)pyridin-3-yl)-3-fluoro-2-methoxyphenyl)propane-1-sulfonamide] | > 10 nM | > 100 nM | > 10 nM
7 | CCCS(=O)(=O)Nc1cc(F)cc(-c2cc(-c3ccc(N4CCNCC4)cc3)cnc2N)c1 [CSLP38, N-(3-(2-Amino-5-(4-(piperazin-1-yl)phenyl)pyridin-3-yl)-5-fluorophenyl)propane-1-sulfonamide] | > 10 nM | > 10 nM | > 100 nM
8 | CCCS(=O)(=O)Nc1cc(-c2cc(-c3ccc(N4CCNCC4)cc3)cnc2N)cc(Cl)c1C [CSLP40, N-(5-(2-Amino-5-(4-(piperazin-1-yl)phenyl)pyridin-3-yl)-3-chloro-2-methylphenyl)propane-1-sulfonamide] | > 100 nM | > 100 nM | > 1000 nM
9 | CCCS(=O)(=O)Nc1cc(-c2cc(-c3ccc(N4CCNCC4)cc3)cnc2N)cc(F)c1C [CSLP41, N-(5-(2-Amino-5-(4-(piperazin-1-yl)phenyl)pyridin-3-yl)-3-fluoro-2-methylphenyl)propane-1-sulfonamide] | > 100 nM | > 100000 nM | > 100 nM
10 | CCCS(=O)(=O)Nc1cc(-c2cc(-c3ccc(N4CCNCC4)cc3)cnc2N)cc(C)c1OC [CSLP42, N-(5-(2-Amino-5-(4-(piperazin-1-yl)phenyl)pyridin-3-yl)-2-methoxy-3-methylphenyl)propane-1-sulfonamide] | > 10 nM | > 100 nM | > 100 nM
11 | CCCS(=O)(=O)Nc1cc(-c2cc(-c3ccc(N4CCNCC4)cc3)cnc2N)cc(OC)c1OC [CSLP43, N-(5-(2-Amino-5-(4-(piperazin-1-yl)phenyl)pyridin-3-yl)-2,3-dimethoxyphenyl)propane-1-sulfonamide] | > 10 nM | > 10 nM | > 1 nM
12 | CCCS(=O)(=O)Nc1cc(OC)cc(-c2cc(-c3cccc(S(C)(=O)=O)c3)cnc2N)c1 [CSLP44, N-(3-(2-Amino-5-(3-(methylsulfonyl)phenyl)pyridin-3-yl)-5-methoxyphenyl)propane-1-sulfonamide] | > 10 nM | > 100 nM | > 1000 nM
13 | CCCS(=O)(=O)Nc1cc(-c2cc(-c3ccc(N4CCNCC4)cc3)cnc2N)cc(C)c1C [CSLP45, N-(5-(2-Amino-5-(4-(piperazin-1-yl)phenyl)pyridin-3-yl)-2,3-dimethylphenyl)propane-1-sulfonamide] | > 100 nM | > 100 nM | > 100 nM
14 | CCCS(=O)(=O)N1CCc2ccc(-c3cc(-c4ccc(N5CCNCC5)cc4)cnc3N)cc21 [CSLP46, 5-(4-(Piperazin-1-yl)phenyl)-3-(1-(propylsulfonyl)indolin-6-yl)pyridin-2-amine] | > 100 nM | > 100000 nM | > 1000 nM
15 | CCCS(=O)(=O)N1CCOc2ccc(-c3cc(-c4ccc(N5CCNCC5)cc4)cnc3N)cc21 [CSLP47, 5-(4-(Piperazin-1-yl)phenyl)-3-(4-(propylsulfonyl)-3,4-dihydro-2H-benzo[b][1,4]oxazin-6-yl)pyridin-2-amine] | > 10 nM | > 100000 nM | > 1000 nM
16 | CCCS(=O)(=O)Nc1cc(-c2cc(-c3ccc(N4CCNCC4)cc3)cnc2N)ccc1O [CSLP48, N-(5-(2-Amino-5-(4-(piperazin-1-yl)phenyl)pyridin-3-yl)-2-hydroxyphenyl)propane-1-sulfonamide] | > 10 nM | > 100 nM | > 1000 nM
17 | CCCS(=O)(=O)Nc1cc(-c2cc(-c3ccc(N4CCNCC4)cc3)cnc2N)cc(OCC)c1OCC [CSLP49] | > 1000 nM | > 100000 nM | > 1000 nM
18 | COc1cc(-c2cc(-c3ccc(N4CCNCC4)cc3)cnc2N)cc(NS(=O)(=O)c2ccccc2)c1C [CSLP51, N-(5-(2-Amino-5-(4-(piperazin-1-yl)phenyl)pyridin-3-yl)-3-methoxy-2-methylphenyl)benzenesulfonamide] | > 1000 nM | > 1000 nM | > 1000 nM
19 | CCCS(=O)(=O)Nc1cc(-c2cc(-c3ccc(N4CCNCC4)cc3)cnc2N)cc2c1OCCO2 [CSLP52, N-(7-(2-Amino-5-(4-(piperazin-1-yl)phenyl)pyridin-3-yl)-2,3-dihydrobenzo[b][1,4]dioxin-5-yl)propane-1-sulfonamide] | > 100 nM | > 100000 nM | > 1000 nM
20 | CCCS(=O)(=O)Nc1cc(-c2cc(-c3ccc(N4CCNCC4)cc3)cnc2C)cc(F)c1OC [CSLP53, N-(3-Fluoro-2-methoxy-5-(2-methyl-5-(4-(piperazin-1-yl)phenyl)pyridin-3-yl)phenyl)propane-1-sulfonamide] | > 1000 nM | > 100000 nM | > 1000 nM
21 | CCOc1cc(-c2cc(-c3ccc(N4CCNCC4)cc3)cnc2N)cc(NS(=O)(=O)Cc2ccccc2)c1C [CSLP54, N-(5-(2-Amino-5-(4-(piperazin-1-yl)phenyl)pyridin-3-yl)-3-ethoxy-2-methylphenyl)-1-phenylmethanesulfonamide] | > 1000 nM | > 1000 nM | > 1000 nM
22 | CCCS(=O)(=O)Nc1cc(-c2cc(-c3ccc(N4CCNCC4)cc3)cnc2N)cc(OCC)c1OC [CSLP56] | > 1000 nM | > 100000 nM | > 1000 nM
23 | CCCS(=O)(=O)N1CCOc2c(F)cc(-c3cc(-c4ccc(N5CCNCC5)cc4)cnc3N)cc21 [CSLP57, 3-(8-Fluoro-4-(propylsulfonyl)-3,4-dihydro-2H-benzo[b][1,4]oxazin-6-yl)-5-(4-(piperazin-1-yl)phenyl)pyridin-2-amine] | > 100 nM | > 1000 nM | > 100 nM
24 | CCCS(=O)(=O)Nc1cc(-c2cc(-c3cccc(N4CCNCC4)c3)cnc2N)cc(F)c1OC [CSLP58, N-(5-(2-Amino-5-(3-(piperazin-1-yl)phenyl)pyridin-3-yl)-3-fluoro-2-methoxyphenyl)propane-1-sulfonamide] | > 10 nM | > 100 nM | > 10 nM
